Measured values as given in patent US6623730B1, “Therapeutic uses of polymers and oligomers comprising gamma-hydroxybutyrate” (Tepha, Inc., priority 1999, dated 2003).

Assays:
[1] = cited from earlier work
[2] = Digestibility of GHB oligomers in normal rats: serum GHB after gavage (GC-MS); conditions: for time for serum GHB to decrease to baseline values / be absorbed and cleared from the circulation: after gavage with GHB monomer
sleep = conditions: rat, large dose; cited from earlier work
[3] = male, Sprague-Dawley, rat, serum, oral, 50 mg/kg

Structure (SMILES) | time of peak plasma concentration ([1]; after oral administration) [min] | half-life of GHB ([1]; in vivo) [min] | concentration at 0.5 h [2, 3] [µM] | concentration at 1 h [2, 3] [µM] | concentration at 2 h [2, 3] [µM] | concentration at 4 h [2, 3] [µM] | GHB Monomer [GHB] concentration of GHB in serum ([2]; rat serum, 0.5 hr after gavage with 50 mg/kg sodium GHB monomer in TWEEN, 50 mg/kg) [µM] | time for serum GHB to decrease to baseline values / be absorbed and cleared from the circulation ([2]; rat, listed as GHB monomer) [h] | time for serum GHB to decrease to baseline values / be absorbed and cleared from the circulation ([2]; rat, listed as monomer) [h] | sleep duration (sleep)
O=C(O)CCCO [GHB Monomer, Gamma-hydroxybutyrate] | 20 to 60 | 35 | 182 ± 158 | 23.2 ± 2.05 | 12.8 ± 2.62 | 14.9 ± 3.31 | 182 ± 158 | ≤ 2 | 1 to 2 | –
CCOC(=O)CCCOC(C)=O [ethyl 4-acetoxybutanoate] | – | – | – | – | – | – | – | – | – | four
